Results on 14 compounds are retold here after US9206161B2, “Bridged bicyclic heteroaryl substituted triazoles useful as Axl inhibitors” (Rigel Pharmaceuticals, Inc., priority 2008, dated 2015).

Structures are written as SMILES.

In the experiment the target is T1, Axl (Homo sapiens, UniProt P30530).
T1 construct: endogenous in cells; host or cells: HeLa cells
T1 sequence (P30530 26-894): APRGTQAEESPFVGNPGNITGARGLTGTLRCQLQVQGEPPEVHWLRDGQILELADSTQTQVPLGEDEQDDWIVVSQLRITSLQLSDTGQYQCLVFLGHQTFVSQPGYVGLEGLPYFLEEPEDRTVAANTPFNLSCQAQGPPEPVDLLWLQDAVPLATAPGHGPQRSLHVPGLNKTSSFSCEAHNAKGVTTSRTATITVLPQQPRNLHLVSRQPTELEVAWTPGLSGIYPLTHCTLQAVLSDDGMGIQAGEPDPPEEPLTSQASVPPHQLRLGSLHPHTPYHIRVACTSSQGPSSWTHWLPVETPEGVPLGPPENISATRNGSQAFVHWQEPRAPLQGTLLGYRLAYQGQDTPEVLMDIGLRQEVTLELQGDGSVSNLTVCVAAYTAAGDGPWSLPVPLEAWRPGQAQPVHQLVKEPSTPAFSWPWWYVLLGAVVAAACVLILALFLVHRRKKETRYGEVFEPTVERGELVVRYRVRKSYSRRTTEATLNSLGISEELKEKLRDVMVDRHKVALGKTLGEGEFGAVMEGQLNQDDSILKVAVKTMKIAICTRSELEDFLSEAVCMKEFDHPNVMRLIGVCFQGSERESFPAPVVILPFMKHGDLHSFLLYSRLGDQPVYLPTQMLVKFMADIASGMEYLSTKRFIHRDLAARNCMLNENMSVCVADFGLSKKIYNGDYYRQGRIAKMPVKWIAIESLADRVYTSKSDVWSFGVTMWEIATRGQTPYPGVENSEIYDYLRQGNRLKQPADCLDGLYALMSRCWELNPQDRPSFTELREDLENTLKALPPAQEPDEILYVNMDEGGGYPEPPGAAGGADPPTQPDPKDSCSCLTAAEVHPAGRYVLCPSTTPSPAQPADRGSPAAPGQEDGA
Nature of the experiment: Phospho-Akt in-cell Western assay. The class given is cell-based. To be noted: Hela cells, Axl antibody cross-linking stimulation, phospho-Akt readout. How it is done:
Phospho-Akt in-Cell Western Assay
The compounds of the invention were tested in the following assay for their ability to inhibit Axl activity.
• Cell culture plate: 96 well assay plate (Corning 3610), white, clear bottom, tissue-culture treated. • Cells: Hela cells. • Starvation medium: For Axl stimulation: 0.5% FCS (fetal calf serum) in DMEM, plus Axl/Fc (extracellular domain of AXL fused to immunoglobulin Fc region) (R&D, 154-AL) 500 ng/mL. • For EGF (epidermal growth factor) stimulation: 0.5% FCS in DMEM (Dulbecco's modified Eagles medium). • Poly-L-Lysine 0.01% solution (the working solution): 10 μg/ml, dilute In PBS (phosphate buffered saline). • Axl antibody cross-linking: • 1st: Mouse anti-Axl (R&D, MAB154). • 2nd: Biotin-SP-conjugated AffiniPure goat anti-mouse IgG (H+L) (Jackson ImmunoResearch #115-065-003). • Fixing buffer: 4% formaldehyde in PBS. • Wash buffer: 0.1% TritonX-100 in PBS. • Quenching buffer: 3% H2O2, 0.1% Azide in wash buffer, Azide and hydrogen peroxide (H2O2) are added fresh. • Blocking buffer: 5% BSA in TBST (tris buffered saline plus 0.1% Tween 20). • Primary antibody: Rabbit anti-human Phospho-Akt antibody (Cell Signaling 9271): 1×250 diluted in blocking buffer. • Secondary antibody: HRP (horse radish peroxidase)-conjugated Goat anti-Rabbit secondary, stock solution: Jackson ImmunoResearch (Goat anti-Rabbit HRP, #111-035-144) 1:1 diluted in glycerol, store at −20° C. The working solution: 1×2000 dilution of stock in blocking buffer. • Chemiluminescent working solution (Pierce, 37030): SuperSignal ELISA (enzyme linked immunosorbant assay) Pico Chemiluminescent substrate. • Crystal Violet solution: Stock: 2.5% Crystal violet in methanol, filtered and kept at ambient temperature. The working solution: dilute the stock 1:20 with PBS immediately before use. • 10% SDS: working solution: 5% SDS (sodium dodecylsulfate), diluted in PBS Methods: Day 1:
A 96 well TC (tissue culture treated) plate was coated with 10 μg/mL poly-L-Lysine at 37° C. for 30 min, washed twice with PBS, and air-dried for 5 minutes before cells were added. Hela cells were seeded at 10,000 cells/well and the cells were starved in 100 μL starvation medium containing Axl/Fc for 24 hrs.
The cells were pre-treated with test compounds by adding 100 μL of 2× test compound to the starvation medium on the cells. The cells were incubated at 37° C. for 1 hr before stimulation.
The cells were stimulated by Axl-antibody cross-linking as follows: A 5×1st/2nd Axl antibody mixture was made (37.5 μg/mL 1st/100 μg/mL 2nd) in starvation medium and nutated at 4° C. with thorough mixing for 1-2 hours for clustering. The resulting mix was warmed to 37° C. 50 μL of 5× Axl 1st/2nd of antibody cluster was added to the cells and the cells were incubated at 37° C. for 5 min.
After 5 minutes stimulation, the plate was flicked to remove medium and the plate was tapped onto paper towels. Formaldehyde (4.0% in PBS, 100 μL) was added to fix the cells and the cells were incubated at ambient temperature for 20 min without shaking.
The cells were washed with a plate washer buffer to remove the formaldehyde solution. The plate was flicked to removed excess wash buffer and tapped onto paper towels. Quenching buffer (100 μL) was added to each well and the cells were incubated at ambient temperature for 20 minutes without shaking.
The cells were washed with a plate washer buffer to remove the quenching buffer. Blocking buffer (100 μL) was added and the cells were incubated at ambient temperature for at least an hour with gentle shaking.
The cells were washed with a plate washer buffer and diluted primary antibody (50 μL) was added to each well (blocking buffer was added to the negative control wells instead). The plates were incubated overnight at 4° C. with gentle shaking.
The wash buffer was removed, diluted secondary antibody (100 μL) was added, and the cells were incubated at ambient temperature for 1 hour with gentle shaking. […]

Take `N#Cc1cccc(-c2nnc(-n3nc(Nc4ccc(N5CCC(N6CCCC6)CC5)c(F)c4)nc3N)c3c2C2CCC3CC2)c1` [Compound 16, 1-(4-(3-cyanophenyl)-5,8-ethano-5,6,7,8-tetrahydrophthalazine-1-yl)-N^3-(4-(4-(pyrrolidin-1-yl)piperidinyl)-3-fluorophenyl)-1H-1,2,4-triazole-3,5-diamine]: the IC50 (Table 5, formula (IVa)) was < 1000 nM. On the same count and under the same terms, under `Nc1nc(Nc2ccc(N3CCC(N4CCCC4)CC3)c(F)c2)nn1-c1nnc(-c2ccc3c(c2)OCO3)c2c1C1CCC2CC1` [Compound 17, 1-(4-(benzo[d][1,3]dioxol-5-yl)-5,8-ethano-5,6,7,8-tetrahydrophthalazine-1-yl)-N^3-(4-(4-(pyrrolidin-1-yl)piperidinyl)-3-fluorophenyl)-1H-1,2,4-triazole-3,5-diamine] stands < 1000 nM.

Consider `Nc1nc(Nc2ccc(N3CCC(N4CCCC4)CC3)c(F)c2)nn1-c1nnc(-c2ccncc2)c2c1C1CCC2CC1` [Compound 18, 1-(4-(pyridin-4-yl)-5,8-ethano-5,6,7,8-tetrahydrophthalazine-1-yl)-N^3-(4-(4-(pyrrolidin-1-yl)piperidinyl)-3-fluorophenyl)-1H-1,2,4-triazole-3,5-diamine], for which, under “Table 5, formula (IVa)”, the IC50 is < 1000 nM. On to `Cc1cccc(-c2nnc(-n3nc(Nc4ccc(N5CCC(N6CCCC6)CC5)c(F)c4)nc3N)c3c2C2CCC3CC2)c1` [Compound 19, 1-(4-(3-methylphenyl)-5,8-ethano-5,6,7,8-tetrahydrophthalazine-1-yl)-N^3-(4-(4-(pyrrolidin-1-yl)piperidinyl)-3-fluorophenyl)-1H-1,2,4-triazole-3,5-diamine], for which the IC50 (Table 5, formula (IVa)) lay in the range of 1000 to 10000 nM. Turning to `C[C@H]1CN(c2ccc(Nc3nc(N)n(-c4nnc(Cl)c5c4C4CCC5CC4)n3)cn2)CCN1CC1CC1` [Compound 20, (3S)-1-(4-chloro-5,8-ethano-5,6,7,8-tetrahydrophthalazine-1-yl)-N^3-(6-(4-(cyclopropylmethyl)-3-methylpiperazin-1-yl)pyridin-3-yl)-1H-1,2,4-triazole-3,5-diamine], the IC50 (Table 7, formula (V)) is < 1000 nM. Consider `C[C@H]1CN(c2ccc(Nc3nc(N)n(-c4nnc(-c5ccccc5)c5c4C4CCC5CC4)n3)cn2)CCN1CC1CC1` [Compound 21, (3S)-1-(4-phenyl-5,8-ethano-5,6,7,8-tetrahydrophthalazine-1-yl)-N^3-(6-(4-(cyclopropylmethyl)-3-methylpiperazin-1-yl)pyridin-3-yl)-1H-1,2,4-triazole-3,5-diamine], for which the IC50 (Table 7, formula (V)) lay within 1000 to 10000 nM. Turning to `C[C@H]1CN(c2ccc(Nc3nc(N)n(-c4nnc(-c5ccccc5Cl)c5c4C4CCC5CC4)n3)cn2)CCN1CC1CC1` [Compound 22, (3S)-1-(4-(2-chlorophenyl)-5,8-ethano-5,6,7,8-tetrahydrophthalazine-1-yl)-N^3-(6-(4-(cyclopropylmethyl)-3-methylpiperazin-1-yl)pyridin-3-yl)-1H-1,2,4-triazole-3,5-diamine], the IC50 (Table 7, formula (V)) was < 1000 nM. On the same count and under the same terms, as for `Cc1cccc(-c2nnc(-n3nc(Nc4ccc(N5CCN(CC6CC6)[C@@H](C)C5)nc4)nc3N)c3c2C2CCC3CC2)c1` [Compound 23, (3S)-1-(4-(3-methylphenyl)-5,8-ethano-5,6,7,8-tetrahydrophthalazine-1-yl)-N^3-(6-(4-(cyclopropylmethyl)-3-methylpiperazin-1-yl)pyridin-3-yl)-1H-1,2,4-triazole-3,5-diamine], the figure is 1000 to 10000 nM; as for `C[C@H]1CN(c2ccc(Nc3nc(N)n(-c4nnc(-c5ccncc5)c5c4C4CCC5CC4)n3)cn2)CCN1CC1CC1` [Compound 24, (3S)-1-(4-(pyridin-4-yl)-5,8-ethano-5,6,7,8-tetrahydrophthalazine-1-yl)-N^3-(6-(4-(cyclopropylmethyl)-3-methylpiperazin-1-yl)pyridin-3-yl)-1H-1,2,4-triazole-3,5-diamine], 1000 to 10000 nM. On to `Nc1nc(Nc2ccc3c(c2)CC[C@@H](N)CC3)nn1-c1cc(-c2ccccc2)c2c(n1)C1CCN2CC1` [Compound 26, (7S)-1-(1,4-ethano-8-phenyl-1,2,3,4-tetrahydro-1,5-naphthyridin-6-yl)-N^3-(7-amino-6,7,8,9-tetrahydro-5H-benzo[7]annulene-2-yl)-1H-1,2,4-triazole-3,5-diamine], for which the IC50 (Table 4, formula (III)) was < 1000 nM.

As to `Nc1nc(Nc2ccc3c(c2)CCC(N2CCCC2)CC3)nn1-c1nnc(Cl)c2c1C1CCC2CC1` (centres unmarked) [Compound 27, 1-(4-chloro-5,8-ethano-5,6,7,8-tetrahydrophthalazine-1-yl)-N^3-(7-(pyrrolidin-1-yl)-6,7,8,9-tetrahydro-5H-benzo[7]annulene-2-yl)-1H-1,2,4-triazole-3,5-diamine], under “Table 8, formula (VI)”, the IC50 was < 1000 nM. Same read-out and setting: as for `Nc1nc(Nc2ccc3c(c2)CCC(N2CCCC2)CC3)nn1-c1nnc(-c2ccccc2)c2c1C1CCC2CC1` (centres unmarked) [Compound 28, 1-(4-phenyl-5,8-ethano-5,6,7,8-tetrahydrophthalazine-1-yl)-N^3-(7-(pyrrolidin-1-yl)-6,7,8,9-tetrahydro-5H-benzo[7]annulene-2-yl)-1H-1,2,4-triazole-3,5-diamine], the figure is < 1000 nM; as for `Nc1nc(Nc2ccc3c(c2)CCC(N2CCCC2)CC3)nn1-c1nnc(-c2ccccc2Cl)c2c1C1CCC2CC1` (centres unmarked) [Compound 29, 1-(4-(2-chlorophenyl)-5,8-ethano-5,6,7,8-tetrahydrophthalazine-1-yl)-N^3-(7-(pyrrolidin-1-yl)-6,7,8,9-tetrahydro-5H-benzo[7]annulene-2-yl)-1H-1,2,4-triazole-3,5-diamine], < 1000 nM. For `Cc1cccc(-c2nnc(-n3nc(Nc4ccc5c(c4)CCC(N4CCCC4)CC5)nc3N)c3c2C2CCC3CC2)c1` (centres unmarked) [Compound 30, 1-(4-(3-methylphenyl)-5,8-ethano-5,6,7,8-tetrahydrophthalazine-1-yl)-N^3-(7-(pyrrolidin-1-yl)-6,7,8,9-tetrahydro-5H-benzo[7]annulene-2-yl)-1H-1,2,4-triazole-3,5-diamine], the IC50 (Table 8, formula (VI)) was < 1000 nM.
